From patent US20070173490A1, “Novel solid forms of (4R)-1-[2-chloro-5-fluorobenzoyl)amino-3-methoxybenzoyl]-1,2,3,5- tetrahydro-spiro[4h-1-benzazepine-4,1'-[2]cyclopentene]-3'-carboxylic acid” (priority 2006, published 2007) come the findings set out here.

Format in all cases: physicochemical
Series [1] in a line: Crystallization solvents list and observations (solubility of the compound in solvents). Particulars: about 20 mg in 4 ml vial, about 40° C. As to the method:
About 20 mg of (4R)-1-[4-(2-chloro-5-fluorobenzoyl)amino-3-methoxybenzoyl]-1,2,3,5-tetrahydro-spiro[4H-1-benzazepine-4,1′-[2]cyclopentene]-3′-carboxylic acid was transferred into a 4 ml vial. Solvent was added in the vial to make the solution or suspension depending on solubility at about 40° C. on hot plate. The vial was removed from hot plate and kept at room temperature. The caps were put on without sealing. All the vials were placed in the hood for slow evaporation. After the solvent evaporated, the solid was investigated using PXRD, DSC, TGA, and microscope.

The nature of series [2]: Water slurry study of polymorph stability. As to the method: Form 6 was crystallized from acetone, butanol, ethanol, isopropyl alcohol, hexane, and water. It melted with a peak at about 203-204° C. and a heat of fusion of about 75-80 J/g.
Series [3] can be described thus: Solid form conversion on heating/desolvation via DSC. Particulars: conversions occurred via DSC, upon heating/desolvation. The method, then: DSC analysis of each sample was performed using a Q100 Differential Scanning Calorimeter (TA Instruments, New Castle, Del., U.S.A.), which uses Thermal Advantage™ version 4.1.0 for operating instrument. In addition, the analysis software used was Universal Analysis 2000 for Windows 2000/XP, version 4.1D; Build 4.1.0.16 (Copyright © 1998-2004 TA Instruments-Water LLC).
For all of the DSC analyses, an aliquot of a sample was weighed into either a standard aluminium pan (Pan part #900786.091; lid part #900779.901) or a hermetic aluminium pan (Pan part #900793.901; lid part #900794.901 (TA Instruments, New Castle Del. USA)). Non-solvated samples were loaded into standard pans and were sealed either by crimping for dry samples or press fitting for wet samples (such as slurries). Solvated samples (including hydrates) were loaded into hermetic pans and hermetically sealed. The sample pan was loaded into the Q100 Differential Scanning Calorimeter, which is equipped with an autosampler, and a thermogram was obtained by individually heating the same using the control software at a rate of 10° C./minute from Tmin (typically 25° C.) to Tmax (typically 275° C.) using an empty aluminium pan as a reference. Dry nitrogen (compressed nitrogen, grade 4.8 (BOC Gases, Murray Hill, N.J. USA)) was used as a sample purge gas and was set at a flow rate of 50 mL/minute. Thermal transitions were viewed and analyzed using the analysis software provided with the instrument.
At least 10 forms were discovered based on distinguished PXRD patterns (all conversions occurred via DSC; such conversions can also occur under ambient conditions at a slower pace).
(In general: DSC measures the heat that a sample takes up or gives off during a temperature scan.)

“Also recorded” adds a separate entry of the source.

Take `COc1cc(C(=O)N2CC[C@]3(C=C(C(=O)O)CC3)Cc3ccccc32)ccc1NC(=O)c1cc(F)ccc1Cl` [Compound of Formula (I), (4R)-1-[4-(2-chloro-5-fluorobenzoyl)amino-3-methoxybenzoyl]-1,2,3,5-tetrahydro-spiro[4H-1-benzazepine-4,1′-[2]cyclopentene]-3′-carboxylic acid]: the “Observation (solubility)” value in series [1] (1,4-Dioxane) is recorded as “Good solubility”; in series [1] (Acetone) it was “Good solubility”; in series [1] (Acetonitrile), “Good solubility”; in series [1] (Butanol), “Medium solubility”; in series [1] (Dichloromethane), “Good solubility”; in series [1] (Ethanol) it was “Medium solubility”. Besides, the “Observation (solubility)” value is “Good solubility” in series [1] (Ethyl acetate); “Poor solubility” in series [1] (Hexane); “Medium solubility” in series [1] (Isopropyl alcohol); “Medium solubility” in series [1] (Methanol); “Good solubility” in series [1] (Nitromethane); “Solution is not clear” in series [1] (Toluene). Also, in series [1] (Water), the “Observation (solubility)” value is recorded as “Poor wetability”. Besides, the “Observation (solution or suspension)” value in series [1] (1,4-Dioxane), in series [1] (Acetone), in series [1] (Acetonitrile), in series [1] (Butanol), in series [1] (Dichloromethane) and in series [1] (Ethanol) was “Solution” each time. Moreover, the “Observation (solution or suspension)” value is given as “Solution” in series [1] (Ethyl acetate); “Suspension” in series [1] (Hexane); “Solution” in series [1] (Isopropyl alcohol); “Solution” in series [1] (Methanol); “Solution” in series [1] (Nitromethane); “Precipitation” in series [1] (Toluene). The “Observation (solution or suspension)” value in series [1] (Water) was “Suspension”.
With `COc1cc(C(=O)N2CC[C@]3(C=C(C(=O)O)CC3)Cc3ccccc32)ccc1NC(=O)c1cc(F)ccc1Cl` [Form 1, (4R)-1-[4-(2-chloro-5-fluorobenzoyl)amino-3-methoxybenzoyl]-1,2,3,5-tetrahydro-spiro[4H-1-benzazepine-4,1′-[2]cyclopentene]-3′-carboxylic acid], the “Solid form conversion in water slurry” value in series [2] (equal amount of forms 1, 5 and 6 mixed in water for more than 76 hours) is reported as “converted to form 6”.
With `COc1cc(C(=O)N2CC[C@]3(C=C(C(=O)O)CC3)Cc3ccccc32)ccc1NC(=O)c1cc(F)ccc1Cl` [Form 2, (4R)-1-[4-(2-chloro-5-fluorobenzoyl)amino-3-methoxybenzoyl]-1,2,3,5-tetrahydro-spiro[4H-1-benzazepine-4,1′-[2]cyclopentene]-3′-carboxylic acid], the “Solid form conversion (physical stability)” value in series [3] (listed as 2) is “(solvate converted to form 6)”.
Regarding `COc1cc(C(=O)N2CC[C@]3(C=C(C(=O)O)CC3)Cc3ccccc32)ccc1NC(=O)c1cc(F)ccc1Cl` [Form 3, (4R)-1-[4-(2-chloro-5-fluorobenzoyl)amino-3-methoxybenzoyl]-1,2,3,5-tetrahydro-spiro[4H-1-benzazepine-4,1′-[2]cyclopentene]-3′-carboxylic acid], the figures for the “Solid form conversion (physical stability)” value in series [3] and in series [3] (listed as 3) were “converted to form 5” and “(solvate converted to form 5)”, respectively.
`COc1cc(C(=O)N2CC[C@]3(C=C(C(=O)O)CC3)Cc3ccccc32)ccc1NC(=O)c1cc(F)ccc1Cl` [Form 4, (4R)-1-[4-(2-chloro-5-fluorobenzoyl)amino-3-methoxybenzoyl]-1,2,3,5-tetrahydro-spiro[4H-1-benzazepine-4,1′-[2]cyclopentene]-3′-carboxylic acid]: in series [3] (listed as 4), the “Solid form conversion (physical stability)” value is on record as “(solvate converted to an amorphous form)”.
In the case of `COc1cc(C(=O)N2CC[C@]3(C=C(C(=O)O)CC3)Cc3ccccc32)ccc1NC(=O)c1cc(F)ccc1Cl` [Form 6, (4R)-1-[4-(2-chloro-5-fluorobenzoyl)amino-3-methoxybenzoyl]-1,2,3,5-tetrahydro-spiro[4H-1-benzazepine-4,1′-[2]cyclopentene]-3′-carboxylic acid], the “Thermodynamic stability among polymorphs” value in series [2] (from highest melting temperature and heat of fusion, confirmed by water slurry study) is “thermodynamically most stable polymorph”.
As to `COc1cc(C(=O)N2CC[C@]3(C=C(C(=O)O)CC3)Cc3ccccc32)ccc1NC(=O)c1cc(F)ccc1Cl` [Form 7, (4R)-1-[4-(2-chloro-5-fluorobenzoyl)amino-3-methoxybenzoyl]-1,2,3,5-tetrahydro-spiro[4H-1-benzazepine-4,1′-[2]cyclopentene]-3′-carboxylic acid], the “Solid form conversion (physical stability)” value in series [3] is listed as “converted to form 1; also recorded: ultimately to form 6”; in series [3] (listed as 7), “(solvate converted to form 1)”; in series [3] (listed as form 7), “converted to form 1”.
For `COc1cc(C(=O)N2CC[C@]3(C=C(C(=O)O)CC3)Cc3ccccc32)ccc1NC(=O)c1cc(F)ccc1Cl` [Form 8, (4R)-1-[4-(2-chloro-5-fluorobenzoyl)amino-3-methoxybenzoyl]-1,2,3,5-tetrahydro-spiro[4H-1-benzazepine-4,1′-[2]cyclopentene]-3′-carboxylic acid], the “Solid form conversion (physical stability)” value in series [3] is “converted to form 1”; in series [3] (listed as 8), “(solvate converted to form 1)”; in series [3] (listed as form 8), “converted to form 1”.
